Results: patent publication US7560473B2 (Institute of Pharmacology and Toxicology Academy of …, priority 2001, dated 2009)
Marks after values point to notes of the source that are not given here.

Columns and labels:
[1] = tested on: outward potassium currents of rat tail arterial SMCs; assay: Whole cell recording of outward potassium currents in rat tail arterial SMCs; assay type: cell-based, Wistar rats; conditions: for Currents, + Compound: outward potassium current amplitude after compound 100 μmol L^−1 in the bath; for Currents, + Compound / Currents, Control (before compound application): X ± SD n = 5; for Currents, Control (before compound application): outward potassium current amplitude before compound application, same cells
Description: Biological activity experiments 6. The effects of novel compounds on potassium currents in isolated arterial vascular smooth muscle cells (SMCs).
The outward currents were, elicited in rat tail arterial SMCs by superfusing extracellular solution under whole cell recording configuration that the depolarizing pulse were applied from −30 mV to +100 mV with the holding potential of −40 mV in 100 ms, 10 mV clamp steps, a frequency of 5 KHz. The compounds were applied in the bath at the concentrations of 100 μmol L^−1. The amplitude of the outward potassium currents was recorded before and after compound application Values were expressed as means±SD. Statistical significance between two groups was evaluated by student's t-test for paired data * P<0.05 **P<0.01 vs control.
1. Preparation of single smooth muscle cells from rat tail arteries: Male Wistar rats (200-250 g) were killed by exsanguination. The tail artery was dissected out and transferred into cold physiological salt solution (PSS) of the following composition (in mM): NaCl 118.3, KCl 4.7, KH2PO4 1.2, MgSO4 1.2, NaHCO3 25.0, CaCl2 2.5, EDTA 0.026 and Glucose 5.0 pH7.4. With the use of a dissecting microscope, the connective tissues were removed and the artery was cut open longitudinally. Endothelium was removed carefully with a cotton swab then the artery was cut into segments with 1 mm long and placed in 4° C. the extracellular solution containing (in mM) NaCl 130, KCl 5, MgCl2 1.2, HEPES 10, Glucose 10, pH7.2 for 20 min. After this incubation, the medium was changed to enzyme solution which was composed of collagenase I (1 mg ml^−1), papain (5 mg ml^−) and bovine serum albumin (2 mg ml^−1). The tissues, were incubated in this solution for 40 min, and then rinsed three times triturated using a fire-polished Pasteur pipette until the medium turned cloudily. The cell suspension was stored in the refrigerator at 4° C.
3. Whole cell recordings: A bath dish with the smooth muscle cells (SMCs) attached and superfused with the extracellular solution at a flow rate of 2 ml min^−1 was mounted onto the stage of an inverted-phase contrast microscope. The microelectrodes having a resistance of (5-8 MΩ) were made from boroscilicate thin-wall glass capillaries, using an automatic multiple-stage, electronic puller (PP830 Japan) and then heat-polished. After establishing a high resistance seal, the patch membrane was disrupted by negative pressure. A commercial patch clamp amplifier (Axon 200B) was used to generate and apply voltages and sample current signals from the cell.

[2] = tested on: rats anesthetized with pentobarbital sodium; assay: Effects on blood pressure, heart rate, cardiac contraction and dilation in rats anesthetized with pentobarbital sodium; assay type: in vivo, Wistar rats; parameters: unit not given here; conditions: change after injection through femoral vein, '+' = increase, all others = decrease; for MBP: mean blood pressure: n = 3~5, doses mg/kg: 2, 8, 12: 10, 3-7, 9-11, 40-44: 5; for DBP: diastolic blood pressure / HR: heart rate / LVSP: left ventricular systolic pressure / SBP: systolic blood pressure / Vpm: the physiological velocity of contractile element shorting / −dp/dtmax: the maximal rate of the decrease of left ventricular pressure: mean, n = 3~5, doses mg/kg: 2, 8, 12: 10, 3-7, 9-11, 40-44: 5
Method: Biological activity experiment 1. The effects of 16 compounds represented by formula I on blood pressure, heart rate, cardiac contraction and dilation in rats anesthetized with pentobarbital sodium.
The methods of biological activity experiment 1 were as follows: Male Wistar rats, weighing 280±30 g were purchased from the experimental animal center of Academy of Military Medical Sciences. Rats were anesthetized with pentobarbital sodium (45 mg/kg) by peritoneal injection. A PE50 polyethylene catheter was inserted into the left ventricle through right carotid artery for cardiac function measurement with a pressure energe exchanger, wherein the signal is put into a SMUP-PC biosignal processing system. Cardiac functional parameters such as HR, LVSP, +dp/dtmax, −dp/dtmax and Vpm were recorded. Another two PE50 polyethylene catheters were inserted into the right femoral artery and vein respectively for blood pressure measurement wherein the artery cathether was linked to a four-channel physiology recorder (RM-6000) through a MPU-0.5A Type pressure energe exchanger, which recorded SBP, DBP and MBP, while the vein catheter was used for compound administration. The methods were described by Liu Wei et al: Liu Wei, Wang Hai, Xiao Wen-Bin. […] Bull Acad Mil Med Sci 1996;20(4):245˜248.

[3] = tested on: spontaneously hypertensive rats; assay: Acute antihypertensive effects in conscious spontaneously hypertensive rats; assay type: in vivo; conditions: po mg/kg: compound 1 3, pinacidil 3, nifedipine 10, bisoprolol 60, captopril 40, means ± SD, 9-13 rats
Description: Biological activity experiment 2. The acute antihypertensive effects of compound 1 in conscious spontaneously hypertensive rats.
The methods of biological activity experiment 2 were described by Long Chao-Liang et al: Long Chao-Liang, Wang Hai, Xiao Wen-Bin. Effects of pinacidil on, hypertensive vascular remodeling. Chin J Pharmacol Toxicol 1997; 11(1):42-46.

[4] = tested on: rats anesthetized with pentobarbital sodium; assay: Antagonism of glibenclamide on the cardiovascular effects in anesthetized rats; assay type: in vivo, Wistar rats; conditions: iv mg/kg: pinacidil 1.0, nifedipine 1.0, compound 1 0.5, means ± SE
Method: The methods of biological activity experiment 1 were as follows: Male Wistar rats, weighing 280±30 g were purchased from the experimental animal center of Academy of Military Medical Sciences. Rats were anesthetized with pentobarbital sodium (45 mg/kg) by peritoneal injection. A PE50 polyethylene catheter was inserted into the left ventricle through right carotid artery for cardiac function measurement with a pressure energe exchanger, wherein the signal is put into a SMUP-PC biosignal processing system. Cardiac functional parameters such as HR, LVSP, +dp/dtmax, −dp/dtmax and Vpm were recorded. Another two PE50 polyethylene catheters were inserted into the right femoral artery and vein respectively for blood pressure measurement wherein the artery cathether was linked to a four-channel physiology recorder (RM-6000) through a MPU-0.5A Type pressure energe exchanger, which recorded SBP, DBP and MBP, while the vein catheter was used for compound administration. The methods were described by Liu Wei et al: Liu Wei, Wang Hai, Xiao Wen-Bin.
The methods of Biological activity experiment 3 were the same as those described in the biological activity experiment 1.

[5] = A: after administration (30 min after pinacidil, 10 min nifedipine, 15 min compound 1), glibenclamide 20 iv pretreatment
[6] = B: before administration, glibenclamide 20 iv pretreatment ten minutes

CNC(C)(C)C(C)C [compound 3]
Currents, + Compound [1]: 0.60 ± 0.34 nA | Currents, Control (before compound application) [1]: 0.56 ± 0.31 nA | MBP: mean blood pressure [2]: 22 | DBP: diastolic blood pressure [2]: 19 | HR: heart rate [2]: 43 | LVSP: left ventricular systolic pressure [2]: 111 | SBP: systolic blood pressure [2]: 29 | Vpm: the physiological velocity of contractile element shorting [2]: 0.49 | −dp/dtmax: the maximal rate of the decrease of left ventricular pressure [2]: 157

COC(=O)C1=C(C)NC(C)=C(C(=O)OC)C1c1ccccc1[N+](=O)[O-] [nifedipine]
SBP at 1 h after administration ([3]; 1 h): 186 ± 6 mmHg | heart rates at 1 h ([3]; 1 h, in bpm (unit assumed)): 410 ± 11 | SBP at 3 h after administration ([3]; 3 h): 219 ± 12 mmHg | heart rates at 3 h ([3]; 3 h, in bpm (unit assumed)): 410 ± 31 | SBP at 5 h after administration ([3]; 5 h): 235 ± 5 mmHg | heart rates at 5 h ([3]; 5 h, in bpm (unit assumed)): 367 ± 24 | SBP at 9 h after administration ([3]; 9 h): 240 ± 6 mmHg | heart rates at 9 h ([3]; 9 h, in bpm (unit assumed)): 365 ± 13 | SBP at 12 h after administration ([3]; 12 h): 242 ± 4 mmHg | heart rates at 12 h ([3]; 12 h, in bpm (unit assumed)): 365 ± 16 | SBP at 24 h after administration ([3]; 24 h): 242 ± 4 mmHg | heart rates at 24 h ([3]; 24 h, in bpm (unit assumed)): 364 ± 22 | SBP base value ([3]; base value before administration): 242 ± 5 mmHg | heart rates base value ([3]; base value before administration, in bpm (unit assumed)): 352 ± 19 | DBP [4, 5]: 62 ± 7 mmHg | LVSP [4, 5]: 113 ± 7 mmHg | MBP [4, 5]: 76 ± 8 mmHg | Vpm [4, 5]: 4.2 ± 0.5 /a | DBP [4, 6]: 95 ± 8 mmHg | LVSP [4, 6]: 131 ± 6 mmHg | MBP [4, 6]: 111 ± 7 mmHg | Vpm [4, 6]: 5.7 ± 0.1 /a

CC(C)C(C)(C)NCc1ccccc1 [compound 24]
Currents, + Compound [1]: 0.63 ± 0.19 nA | Currents, Control (before compound application) [1]: 0.65 ± 0.19 nA

CCCCNC(C)(C)C(C)C [compound 6, N-butyl-2,3-dimehyl-2-butylamine]
Currents, + Compound [1]: 1.18 ± 0.54* nA | Currents, Control (before compound application) [1]: 0.49 ± 0.23 nA | MBP: mean blood pressure [2]: 49 | DBP: diastolic blood pressure [2]: 43 | HR: heart rate [2]: 111 | LVSP: left ventricular systolic pressure [2]: 263 | SBP: systolic blood pressure [2]: 61 | Vpm: the physiological velocity of contractile element shorting [2]: 0.98 | −dp/dtmax: the maximal rate of the decrease of left ventricular pressure [2]: 276

CC(C)C(C)(C)NC(=O)c1cccnc1 [compound 39]
Currents, + Compound [1]: 0.51 ± 0.22 nA | Currents, Control (before compound application) [1]: 0.46 ± 0.14 nA

CC(C)C(C)(C)NCC1CC1 [compound 15, N-cyclopropylmethyl-2,3-dimethyl-2-butylamine]
Currents, + Compound [1]: 1.30 ± 0.45* nA | Currents, Control (before compound application) [1]: 0.83 ± 0.24 nA

CC(C)C(C)(C)N [compound 2]
Currents, + Compound [1]: 1.01 ± 0.57 nA | Currents, Control (before compound application) [1]: 0.91 ± 0.49 nA | MBP: mean blood pressure [2]: 24 | DBP: diastolic blood pressure [2]: 15 | HR: heart rate [2]: 20 | LVSP: left ventricular systolic pressure [2]: 116 | SBP: systolic blood pressure [2]: 38 | Vpm: the physiological velocity of contractile element shorting [2]: 1.16 | −dp/dtmax: the maximal rate of the decrease of left ventricular pressure [2]: 54

C=CCNC(C)(C)C(C)C [compound 25, N-allyl-2,3-dimethyl-2-butylamine]
stimulation of potassium channel activities (in words) ([1]; 100 μmol L^−1, rat tail arterial SMCs): Maximum potency | Currents, + Compound [1]: 1.46 ± 0.50** nA | Currents, Control (before compound application) [1]: 0.68 ± 0.19 nA

CCC(C)NC(C)(C)C(C)C (stereo not drawn) [compound 13, N-(1-methylpropyl)-2,3-dimethyl-2-butylamine]
Currents, + Compound [1]: 0.85 ± 0.31** nA | Currents, Control (before compound application) [1]: 0.55 ± 0.34 nA

CCNC(C)(C)C(C)C [compound 4]
Currents, + Compound [1]: 0.69 ± 0.14** nA | Currents, Control (before compound application) [1]: 0.61 ± 0.12 nA | MBP: mean blood pressure [2]: 25 | DBP: diastolic blood pressure [2]: 23 | HR: heart rate [2]: 44 | LVSP: left ventricular systolic pressure [2]: 146 | SBP: systolic blood pressure [2]: 31 | Vpm: the physiological velocity of contractile element shorting [2]: 0.45 | −dp/dtmax: the maximal rate of the decrease of left ventricular pressure [2]: 177
